Reference: patent publication US4868290A, “4'-Deoxy-3"-demethoxy-3"-methylenedesmycosin derivatives and synthetic intermediates thereof” (Toyo Jozo Kabushiki Kaisha, priority 1987, dated 1989)
Values after ≈ are worked out from the molar mass of the structure shown. Read-outs that look alike come from different tables or passages of the source.

How the values were obtained:
Format in all cases: cell-based
Staph. aureus ATCC6538P = experiment: MIC, Staph. aureus ATCC6538P; details: Staphylococcus aureus
Excerpt: (§1) The minimum inhibitory concentration (MIC) of compounds (1) according to the present invention is illustrated in Table 1.

Staph. aureus MS353 = experiment: MIC, Staph. aureus MS353; details: Staphylococcus aureus
Excerpt: as §1

Staph. aureus MS353C36 = experiment: MIC, Staph. aureus MS353C36 (erythromycin resistant strain); details: Staphylococcus aureus
Excerpt: as §1

Staph. aureus MS353 AO = experiment: MIC, Staph. aureus MS353 AO; details: Staphylococcus aureus, MS353AO
Excerpt: as §1

Staph. aureus 0119 = experiment: MIC, Staph. aureus 0119; details: Staphylococcus aureus
Excerpt: as §1

Staph. aureus 0126 = experiment: MIC, Staph. aureus 0126; details: Staphylococcus aureus
Excerpt: as §1

Staph. aureus 0127 = experiment: MIC, Staph. aureus 0127; details: Staphylococcus aureus
Excerpt: as §1

Staph. aureus Smith = experiment: MIC, Staph. aureus Smith; details: Staphylococcus aureus
Excerpt: as §1

Strept. pyogenes N.Y.5 = experiment: MIC, Strept. pyogenes N.Y.5; details: Streptococcus pyogenes
Excerpt: as §1

Strept. pyogenes 1022 = experiment: MIC, Strept. pyogenes 1022; details: Streptococcus pyogenes
Excerpt: as §1

Strept. agalactiae 1020 = experiment: MIC, Strept. agalactiae 1020; details: Streptococcus agalactiae
Excerpt: as §1

[1] = test system: Enterococcus faecalis 1501; experiment: MIC, Enterococcus faecalis 1501
Excerpt: as §1

[2] = test system: Micrococcus luteus ATCC9341; experiment: MIC, Micrococcus luteus ATCC9341
Excerpt: as §1

[3] = test system: Coryne. diphtheriae P.W.8; experiment: MIC, Coryne. diphtheriae P.W.8; details: Corynebacterium diphtheriae
Excerpt: as §1

[4] = test system: Bacillus subtilis ATCC6633; experiment: MIC, Bacillus subtilis ATCC6633
Excerpt: as §1

E. coli NIHJ JC-2 = experiment: MIC, E. coli NIHJ JC-2; details: Escherichia coli, NIHJJC2
Excerpt: as §1

[5] = Staph. aureus MS353, read-out: MIC
[6] = Staph. aureus 0126, read-out: MIC
[7] = Staph. aureus Smith, read-out: MIC

Row | Compound | MIC (Staph. aureus ATCC6538P) [µg/mL] | MIC (Staph. aureus MS353; [5]) [µg/mL] | MIC (Staph. aureus MS353C36) [µg/mL] | MIC (Staph. aureus MS353 AO) [µg/mL] | MIC (Staph. aureus 0119) [µg/mL] | MIC (Staph. aureus 0126; [6]) [µg/mL] | MIC (Staph. aureus 0127) [µg/mL] | MIC (Staph. aureus Smith; [7]) [µg/mL] | MIC (Strept. pyogenes N.Y.5) [µg/mL] | MIC (Strept. pyogenes 1022) [µg/mL] | MIC (Strept. agalactiae 1020) [µg/mL] | MIC [1] [µg/mL] | MIC [2] [µg/mL] | MIC [3] [µg/mL] | MIC [4] [µg/mL] | MIC (E. coli NIHJ JC-2) [µg/mL] | MIC (Staph. aureus MS353; MS353) [µg/mL] | MIC (Staph. aureus 0126; 0126) [µg/mL] | MIC (Staph. aureus Smith) [µg/mL]
1 | CCC1OC(=O)CC(O)C(C)C(OC2OC(C)C(O)C(N(C)C)C2O)C(C)CC(C)C(=O)/C=C/C(C)=C/C1COC1OC(C)CC(=O)C1OC (stereo not shown) [Compound 1, 4"-deoxy-3"-demethoxy-3"-oxo-19-deformyldesmycosin] | 0.39 (≈ 0.548 µM) | 0.39 (≈ 0.548 µM) | 0.39 (≈ 0.548 µM) | > 100 | > 100 | 1.56 (≈ 2.19 µM) | > 100 | 0.78 (≈ 1.1 µM) | 0.2 (≈ 0.281 µM) | 50 (≈ 70.2 µM) | 0.39 (≈ 0.548 µM) | 1.56 (≈ 2.19 µM) | 0.2 (≈ 0.281 µM) | 0.1 (≈ 0.14 µM) | 0.1 (≈ 0.14 µM) | > 100 |  |  | 
2 | CCC1OC(=O)CC(O)C(C)C(OC2OC(C)CC(N(C)C)C2O)C(C)CC(C)C(=O)/C=C/C(C)=C/C1COC1OC(C)C=C(OC)C1OC (stereo not shown) [Compound 2, 4',4"-dideoxy-3",4"-di-dehydro-19-deformyldesmycosin] | 0.2 (≈ 0.282 µM) | 0.2 (≈ 0.282 µM) | 0.2 (≈ 0.282 µM) | > 100 | > 100 | 6.25 (≈ 8.8 µM) | > 100 | 0.39 (≈ 0.549 µM) | 0.2 (≈ 0.282 µM) | > 100 | 0.39 (≈ 0.549 µM) | 1.56 (≈ 2.2 µM) | ≤ 0.05 | 0.2 (≈ 0.282 µM) | 0.1 (≈ 0.141 µM) | > 100 |  |  | 
3 | C=C1CC(C)OC(OCC2/C=C(C)/C=C/C(=O)C(C)CC(C)C(OC3OC(C)C(O)C(N(C)C)C3O)C(C)C(O)CC(=O)OC2CC)C1OC (stereo not shown) [Compound 3, 4"-deoxy-3"-demethoxy-3"-methylene-19-deformyldesmycosin] | 0.39 (≈ 0.549 µM) | 0.39 (≈ 0.549 µM) | 0.39 (≈ 0.549 µM) | > 100 | > 100 |  | > 100 | 1.56 (≈ 2.2 µM) | 0.78 (≈ 1.1 µM) | 50 (≈ 70.4 µM) | 0.1 (≈ 0.141 µM) | 0.78 (≈ 1.1 µM) | 0.1 (≈ 0.141 µM) | ≤ 0.05 | 0.1 (≈ 0.141 µM) | > 100 |  |  | 
4 | C=C1CC(C)OC(OCC2/C=C(C)/C=C/C(=O)C(C)CC(C)C(OC3OC(C)CC(N(C)C)C3O)C(C)C(O)CC(=O)OC2CC)C1OC (stereo not shown) [Compound 4, 4',4"-di-deoxy-3"-demethoxy-3"-methylene-19-deformyldesmycosin] | 0.1 (≈ 0.144 µM) | 0.2 (≈ 0.288 µM) | 0.2 (≈ 0.288 µM) | > 100 | > 100 | 0.78 (≈ 1.12 µM) | 100 (≈ 144 µM) | 0.39 (≈ 0.562 µM) | 0.1 (≈ 0.144 µM) | 3.13 (≈ 4.51 µM) | ≤ 0.05 | 0.39 (≈ 0.562 µM) | ≤ 0.05 | ≤ 0.05 | 0.1 (≈ 0.144 µM) | > 100 |  |  | 
5 | C=C1CC(C)OC(OCC2/C=C(C)/C=C/C(=O)C(C)CC(C)C(OC3OC(C)C(O)C(N(C)C)C3O)C(C)C(OC(=O)CC)CC(=O)OC2CC)C1OC (stereo not shown) [Compound 5, 4"-deoxy-3"-demethoxy-3"-methylene-3-0-propionyl-19-deformyldesmycosin] | 0.39 (≈ 0.509 µM) | 0.78 (≈ 1.02 µM) | 0.78 (≈ 1.02 µM) | > 100 | > 100 |  | > 100 | 0.78 (≈ 1.02 µM) | 0.78 (≈ 1.02 µM) | 100 (≈ 131 µM) | 0.2 (≈ 0.261 µM) | 1.56 (≈ 2.04 µM) | 0.2 (≈ 0.261 µM) | 0.2 (≈ 0.261 µM) | ≤ 0.05 | > 100 |  |  | 
6 | C=C1CC(C)OC(OCC2/C=C(C)/C=C/C(=O)C(C)CC(C)C(OC3OC(C)C(O)C(N(C)C)C3O)C(C)C(OC(=O)N(C)C)CC(=O)OC2CC)C1OC (stereo not shown) [Compound 6, 4"-deoxy-3"-demethoxy-3"-methylene-3-0-dimethylcarbamoyl-19-deformyldesmycosin] | 0.39 (≈ 0.499 µM) | 0.39 (≈ 0.499 µM) | 0.78 (≈ 0.999 µM) | > 100 | > 100 |  | > 100 | 1.56 (≈ 2 µM) | 0.78 (≈ 0.999 µM) | > 100 | 0.2 (≈ 0.256 µM) | 0.78 (≈ 0.999 µM) | 0.2 (≈ 0.256 µM) | 0.1 (≈ 0.128 µM) | 0.1 (≈ 0.128 µM) | > 100 |  |  | 
7 | CCC1OC(=O)CC(O)C(C)C(OC2OC(C)C(O)C(N(C)C)C2O)C(CC=O)CC(C)C(=O)/C=C/C(C)=C/C1COC1OC(C)C(O)C(OC)C1OC (stereo not shown) [Des, Desmycosin (4'-demycarosyltylosin), reference compound] | 0.78 (≈ 1.01 µM) |  | 1.56 (≈ 2.02 µM) | 100 (≈ 130 µM) | > 100 |  | > 100 |  | 0.1 (≈ 0.13 µM) | > 100 | 0.2 (≈ 0.259 µM) | 0.78 (≈ 1.01 µM) | 0.2 (≈ 0.259 µM) | 0.1 (≈ 0.13 µM) | 0.78 (≈ 1.01 µM) | > 100 | 1.56 (≈ 2.02 µM) | 1.56 (≈ 2.02 µM) | 1.56 (≈ 2.02 µM)
